Measured values as given in patent US9687569B2, “Theranostic nanoparticle and methods for making and using the nanoparticle” (priority 2012, dated 2017).

How the values were obtained:
C6-ADR cells [1] = assay: Fluorescence and confocal imaging of intracellular DOX; type: cell-based, rat
Protocol: The internalization pathway of free DOX and NP-DOX were investigated by labeling endosomal compartments of cells with calcein after incubation with cells for 4 h.
C6-ADR cells were plated at 500,000 cells per well in 6-well plates containing 22×22 mm glass cover slips the night before treatment. Cells were treated with 1000 ng/mL free DOX or NP-DOX with equimolar concentration of DOX in 2 mL fully supplemented DMEM for 4 hrs before cells were washed three times with PBS and 2 mL fresh fully supplemented media added. After 24 hrs, cells were washed three times with PBS, and fixed in 4% formaldehyde (Polysciences Inc., Warrington, Pa.) for 30 min. Cell membranes were stained with wheat germ agglutinin, Alexa Fluor 488 conjugates (WGA-AF488, Invitrogen, Carlsbad, Calif.) following the manufacturer's protocol. The cover slips were then mounted on microscope slides using Prolong Gold anti-fade solution (Invitrogen, Carlsbad, Calif.) containing DAPI for cell nuclei staining. Images were acquired on an inverted fluorescent microscope (Nikon Instruments, Melville, N.Y.) with the appropriate filters using a Nikon Ril Color Cooled Camera System and 60× oil objective Lens. For internalization pathway experiment, cells were treated with DOX or NP-DOX in the presence of 0.25 mM calcein for 4 hrs. […] DOX and calcein uptake were analyzed using confocal microscopy (Zeiss 510 Meta).

C6-ADR cells [2] = assay: Intracellular DOX quantification; type: cell-based, rat; settings: for intracellular concentration of DOX: 1000 ng/mL DOX
Protocol: Concurrently, intracellular concentration of DOX was determined (FIG. 6B) by UV analysis.

COc1cccc2c1C(=O)c1c(O)c3c(c(O)c1C2=O)C[C@@](O)(C(=O)CO)C[C@@H]3O[C@H]1C[C@H](N)[C@H](O)[C@H](C)O1.Cl [free DOX, Doxorubicin.HCl]
intracellular DOX fluorescence (C6-ADR cells [1]; C6-ADR cells treated 4 h, imaged 24 h after initial incubation): minimal fluorescence | intracellular localization of DOX signal (calcein-labeled endosomes) (C6-ADR cells [1]; C6-ADR cells, 4 h incubation, confocal): partially colocalized with nucleus and partially localized in cytoplasma | intracellular concentration of DOX (C6-ADR cells [2]; 24 h after treatment): 0.13±0.01 pg/cell | decrease of intracellular DOX concentration (C6-ADR cells [2]; by 24 h after initial exposure): 91% | intracellular concentration of DOX (C6-ADR cells [2]; four hours after treatment): 1.49±0.05 pg/cell
